Here are results for 24 molecules from patent publication US9643967B2, “Pyrrolo[3,2-c]pyridine derivatives as TLR inhibitors” (TAKEDA PHARMACEUTICAL COMPANY LIMITED, priority 2013, dated 2017).

The experiment addresses T1, hTLR9 (Homo sapiens, UniProt Q9NR96).
T1 construct: expressed in transfected cells; host or cells: HEK-Blue-hTLR9 cells (HEK293)
T1 sequence (Q9NR96 26-1032): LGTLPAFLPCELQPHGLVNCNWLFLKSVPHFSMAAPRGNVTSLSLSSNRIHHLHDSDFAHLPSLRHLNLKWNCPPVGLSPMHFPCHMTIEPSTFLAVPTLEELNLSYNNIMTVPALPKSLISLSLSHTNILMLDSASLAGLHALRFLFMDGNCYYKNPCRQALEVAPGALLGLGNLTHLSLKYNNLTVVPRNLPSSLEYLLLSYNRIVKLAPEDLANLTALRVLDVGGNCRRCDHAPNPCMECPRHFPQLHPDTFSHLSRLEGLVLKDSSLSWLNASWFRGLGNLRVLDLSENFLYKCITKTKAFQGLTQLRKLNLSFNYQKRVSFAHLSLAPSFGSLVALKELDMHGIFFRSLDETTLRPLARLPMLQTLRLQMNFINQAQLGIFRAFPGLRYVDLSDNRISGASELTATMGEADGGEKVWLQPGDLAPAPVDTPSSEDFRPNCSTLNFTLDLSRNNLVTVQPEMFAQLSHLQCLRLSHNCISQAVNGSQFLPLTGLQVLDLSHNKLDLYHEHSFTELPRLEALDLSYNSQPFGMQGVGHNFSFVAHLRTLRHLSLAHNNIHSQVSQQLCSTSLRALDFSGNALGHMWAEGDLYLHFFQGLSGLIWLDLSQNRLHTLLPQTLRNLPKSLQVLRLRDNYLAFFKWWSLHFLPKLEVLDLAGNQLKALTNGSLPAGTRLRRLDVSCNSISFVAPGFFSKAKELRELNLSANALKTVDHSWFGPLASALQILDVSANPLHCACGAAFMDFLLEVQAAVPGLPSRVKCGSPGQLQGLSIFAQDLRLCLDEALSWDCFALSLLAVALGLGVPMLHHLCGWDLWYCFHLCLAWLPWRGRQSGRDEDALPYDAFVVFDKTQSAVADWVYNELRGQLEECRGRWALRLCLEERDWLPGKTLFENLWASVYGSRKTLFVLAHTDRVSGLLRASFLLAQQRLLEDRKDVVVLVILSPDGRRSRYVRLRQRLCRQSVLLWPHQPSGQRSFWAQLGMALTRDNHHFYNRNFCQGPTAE
Description: hTLR9 antagonism (SEAP inhibition assay) in HEK-Blue-hTLR9 (HEK293) cells, ODN-2006 stimulated. It counts as cell-based. As to conditions: SEAP, HEK-Blue-hTLR9 cells; for inhibition at 1 µM: HEK-Blue hTLR9, 1 μM, read-out: hTLR9 inhibitory activity (% at 1 μM). The procedure: hTLR9 Antagonism (SEAP Inhibition Assay) in HEK293 Cell Lines
The SEAP reporter gene in HEK-Blue™-hTLR9 cells is placed under the control of the IFN-b minimal promoter fused to five NF-kB and AP-1 binding sites. The stimulation with a TLR9 ligand (ODN-2006) activates NF-kB and AP-1 which induces the production of SEAP. Levels of SEAP are determined with QUANTI-Blue™ detection medium that turns purple/blue in the presence of alkaline phosphatase. Decrease in the levels of SEAP production as indicated by reduction in absorbance at 650 nm is directly co-related with the TLR9 inhibitory activity of the antagonist (NCE).
HEK-Blue™-hTLR9 cells were maintained in DMEM with 10% FBS, 1% Penicillin/Streptomycin/Amphotericin (complete growth medium) and 0.2% Normocin. For the assay, cells were dissociated by washing in 1×PBS and re-suspended in complete DMEM. Cells were seeded at a density of 20000 cells per well; (40 μl per well) in a 384 well assay plate.
5 μl of 10× antagonist (NCE) was added to the cells in triplicates for each concentration. The plate was incubated for half an hour at 37° C. with 5% CO2. 5 μl of agonist (ODN-2006) was added and the plate was incubated overnight for 18 hours at 37° C. with 5% CO2. 5 μl of supernatant was transferred to a 384 well reading plate and to this 45 μl of Quanti-Blue™ detection reagent was added. The plate was then incubated for an hour at 37° C. SEAP activity in the supernatant was indicated by change in the pink color of Quanti-Blue™ detection reagent to purple/blue and the absorbance was read at 650 nm in the end point mode.

`Cc1cc2[nH]c(CN3CCOCC3)cc2c(-c2ccc(C3CCN(C(C)C)CC3)cc2)n1` [Example A51, 4-[[4-[4-(1-isopropyl-4-piperidyl)phenyl]-6-methyl-1H-pyrrolo[3,2-c]pyridin-2-yl]methyl]morpholine]: the inhibition at 1 µM amounted to 100%. In the case of `Cc1nc(-c2ccc(N3CCN(C(C)C)CC3)cc2)c2cc(CCN3CCOCC3)[nH]c2c1C` [Example B6, 4-[2-[4-[4-(4-isopropylpiperazin-1-yl)phenyl]-6,7-dimethyl-1H-pyrrolo[3,2-c]pyridin-2-yl]ethyl]morpholine], the inhibition at 1 µM came out at 79.7%.

As for `Cc1nc(-c2ccc(N3CCN(C(C)C)CC3)cc2)c2cc(CN3CCOCC3)[nH]c2c1C` [Example A36, 4-[[4-[4-(4-isopropylpiperazin-1-yl)phenyl]-6,7-dimethyl-1H-pyrrolo[3,2-c]pyridin-2-yl]methyl] morpholine], the inhibition at 1 µM came out at 96.7%.

Regarding `CC(C)N1CCN(C2CCC(c3nccc4[nH]c(CN5CCOCC5)cc34)CC2)CC1` (stereo not drawn) [Example A80, 4-[[4-[4-(4-isopropylpiperazin-1-yl)cyclohexyl]-1H-pyrrolo[3,2-c]pyridin-2-yl]methyl]morpholine], the “hTLR9 inhibitory activity (% at 1 μM)” value is recorded as 95.8%. Take `Cc1cc2[nH]c(CCCN3CCCCC3)cc2c(-c2ccc(N3CCN(C(C)C)CC3)cc2)n1` [Example C5, 4-[4-(4-isopropylpiperazin-1-yl)phenyl]-6-methyl-2-[3-(1-piperidyl)propyl]-1H-pyrrolo[3,2-c]pyridine]: the inhibition at 1 µM amounted to 94.7%.

Take `Cc1cc2[nH]c(CN3CCC4(CC3)CC(O)C4)cc2c(-c2ccc(N3CCN(C(C)C)CC3)cc2)n1` [Example A29, 7-[[4-[4-(4-isopropylpiperazin-1-yl)phenyl]-6-methyl-1H-pyrrolo[3,2-c]pyridin-2-yl]methyl]-7-azaspiro[3.5] nonan-2-ol]: the inhibition at 1 µM worked out at 100%.

As to `Cc1cc2c(cc(CCN3CCOCC3)n2C)c(C2CCC(N3CCN(C(C)C)CC3)CC2)n1` (stereo not drawn) [Example B27, 4-[2-[4-[4-(4-isopropylpiperazin-1-yl)cyclohexyl]-1,6-dimethyl-pyrrolo[3,2-c]pyridin-2-yl]ethyl]morpholine], the “hTLR9 inhibitory activity (% at 1 μM)” value was found to be 95.8%. Turning to `CN1CCN(Cc2ccc(-c3nccc4[nH]c(CN5CCOCC5)cc34)cc2)CC1` [Example A60, 4-[[4-[4-[(4-methylpiperazin-1-yl)methyl]phenyl]-1H-pyrrolo[3,2-c]pyridin-2-yl]methyl]morpholine], the inhibition at 1 µM worked out at 86%. Same read-out and setting: with `CC(C)N1CCC(c2ccc(-c3nccc4[nH]c(CN5CCOCC5)cc34)cc2)CC1` [Example A70, 4-[[4-[4-(1-isopropyl-4-piperidyl)phenyl]-1H-pyrrolo[3,2-c]pyridin-2-yl]methyl]morpholine] the figure was 100%; with `Cc1cc2c(cc(CCN3CCOCC3)n2C)c(-c2ccc(N3CCN(C(C)C)CC3)cc2F)n1` [Example B19, 4-[2-[4-[2-fluoro-4-(4-isopropylpiperazin-1-yl)phenyl]-1,6-dimethyl-pyrrolo[3,2-c]pyridin-2-yl]ethyl]morpholine], 100%.

Take `CCN1CCN(c2ccc(-c3nccc4[nH]c(CN5CCOCC5)cc34)cc2)CC1` [Example A3, 4-[[4-[4-(4-ethylpiperazin-1-yl)phenyl]-1H-pyrrolo[3,2-c]pyridin-2-yl]methyl] morpholine]: the inhibition at 1 µM is 100%. For `Cc1nc(-c2ccc(N3CCN(C(C)C)CC3)cc2)c2cc(CN3CCCC3)[nH]c2c1C` [Example A40, 4-[4-(4-isopropylpiperazin-1-yl)phenyl]-6,7-dimethyl 2-(pyrrolidin-1-ylmethyl)-1H-pyrrolo[3,2-c)pyridine], the inhibition at 1 µM stood at 80%. Regarding `Cc1cc2c(cc(CN3CCOCC3)n2C)c(-c2ccc(N3CCN(C(C)C)CC3)cc2)n1` [Example A35, 4-[[4-[4-(4-isopropylpiperazin-1-yl]phenyl]-1,6-dimethyl-pyrrolo[3,2-c]pyridin-2-yl]methyl] morpholine], the inhibition at 1 µM turned out to be 96.3%. Still for that read-out and setting: with `CC(C)N1CCC(Oc2ccc(-c3nccc4[nH]c(CN5CCOCC5)cc34)cc2)CC1` [Example A56, 4-[[4-[4-[(1-isopropyl-4-piperidyl)oxy]phenyl]-1H-pyrrolo[3,2-c]pyridin-2-yl]methyl]morpholine] the figure was 99.5%. For the molecule `Cc1cc2[nH]c(CCN3CCOCC3)cc2c(-c2ccc(N3CCN(C(C)C)CC3)cc2)n1` [Example B3, 4-[2-[4-[4-(4-isopropylpiperazin-1-yl)phenyl]-6-methyl-1H-pyrrolo[3,2-c]pyridin-2-yl]ethyl]morpholine], the inhibition at 1 µM stood at 100%. Regarding `CC(C)N1CCC(n2cc(-c3nccc4[nH]c(CN5CCOCC5)cc34)cn2)CC1` [Example A54, 4-[[4-[1-(1-isopropyl-4-piperidyl)pyrazol-4-yl]-1H-pyrrolo[3,2-c]pyridin-2-yl]methyl]morpholine], the inhibition at 1 µM is 95.4%. In the case of `CC(C)N1CCN(c2ccc(-c3nccc4[nH]c(CN5CCC6(CC5)CC(O)C6)cc34)cc2)CC1` [Example A13, 7-[[4-[4-(4-isopropylpiperazin-1-yl)phenyl]-1H-pyrrolo[3,2-c]pyridin-2-yl]methyl]-7-azaspiro[3.5] nonan-2-ol], the inhibition at 1 µM worked out at 100%.

In the case of `CN1CCC(n2cc(-c3nccc4[nH]c(CN5CCOCC5)cc34)cn2)CC1` [Example A63, 4-[[4-[1-(1-methyl-4-piperidyl)pyrazol-4-yl]-1H-pyrrolo[3,2-c]pyridin-2-yl]methyl]morpholine], the inhibition at 1 µM came out at 93.4%. Consider `CN1CCC(Oc2ccc(-c3nccc4[nH]c(CN5CCOCC5)cc34)cc2)CC1` [Example A62, 4-[[4-[4-[(1-methyl-4-piperidyl)oxy]phenyl]-1H-pyrrolo[3,2-c]pyridin-2-yl]methyl]morpholine], for which the inhibition at 1 µM was 98.2%. With `CN1CCN(c2ccc(-c3nccc4c3cc(CN3CCOCC3)n4C)cc2)CC1` [Example A9, 4-[[1-methyl-4-[4-(4-methylpiperazin-1-yl)phenyl]pyrrolo[3,2-c]pyridin-2-yl]methyl] morpholine], the inhibition at 1 µM amounted to 100%. With `CCN1CCN(c2ccc(-c3nc(C)c(C)c4[nH]c(CN5CCOCC5)cc34)cc2)CC1` [Example A38, 4-[[4-[4-(4-ethylpiperazin-1-yl)phenyl]-6,7-dimethyl-1H-pyrrolo[3,2-c]pyridin-2-yl]methyl] morpholine], the inhibition at 1 µM came out at 98.5%. Still for that read-out and setting: with `Cc1cc2[nH]c(CCN3CCOCC3)cc2c(-c2ccc(N3CCN(C)CC3)cc2)n1` [Example B4, 4-[2-[6-methyl-4-[4-(4-methylpiperazin-1-yl)phenyl]-1H-pyrrolo[3,2-c]pyridin-2-yl]ethyl]morpholine] the figure was 100%; with `CC(C)N1CCN(c2ccc(-c3nccc4[nH]c(CN5CCC(F)CC5)cc34)cc2)CC1` [Example A24, 2-[(4-fluoro-1-piperidyl)methyl]-4-[4-(4-isopropylpiperazin-yl)phenyl]-1H-pyrrolo[3,2-c] pyridine], 95.1%; with `CC(C)N1CCN(c2ccc(-c3nccc4[nH]c(CN5CCOCC5)cc34)cn2)CC1` [Example A53, 4-[[4-[6-(4-isopropylpiperazin-1-yl)-3-pyridyl]-1H-pyrrolo[3,2-c]pyridin-2-yl]methyl]morpholine], 77%.
